Entries after “also recorded” stand apart in the source; their conditions may differ.
Columns and labels:
Format in all cases: in vivo, rat
[1] = test system: Vascular Cell Adhesion Molecule-1 (VCAM-1); test: Assay C: VCAM-1 mRNA, TaqMan; settings: aldosterone+salt alone or with eplerenone 100 mg/kg/day; increase at day 30 did not reach statistical significance
Method: (§1) The procedure of Assay B was expanded upon in a further study. […] Myocardial tissue from animals in each treatment group was examined after 7, 14, or 30 days of treatment.
(§2) Potassium chloride supplementation was added to the saline solution in order to prevent the potential hypokalemia associated with aldosterone excess.
(§3) Treatment At the time of the surgery, an Alzet 2002 osmotic minipump (Alza Corp., Palo Alto, Calif.) containing either vehicle (9% ethanol/87% propylene glycol/4% dH2O) or 1.0 mg/mL d-aldosterone (Sigma Chemical, St. Louis, Mo.) was inserted subcutaneously at the nape of the neck. Aldosterone was administered at a dose of 0.75 µg/hour. […]
(§4) The fluorogenic 5′-nuclease assay (TaqMan PCR) using Applied Biosystems' 7700 Sequence Detection System (Applied Biosystems, Foster City, Calif.) allowed for real time detection/quantitation of a specific gene by monitoring the increase in fluorescence of a gene-specific, dye-labeled oligonucleotide probe. […] When the probe was annealed to the target gene, fluorescence of 6FAM was prevented by the close proximity of TAMRA. The exonuclease activity of Taq polymerase released the dyes from the oligonucleotide probe by displacing the probe from the target sequence resulting in fluorescence excitation in direct proportion to the amount of target message present. […]

[2] = Assay B: aldosterone infusion model, heart histology, vascular inflammatory lesions and myocardial injury; settings: aldosterone-infused, saline-drinking, uni-nephrectomized Sprague Dawley rats, 4 weeks; eplerenone 100 mpk p.o; 0.6% KCl in the drinking fluid
Method: Assay B: In Vivo Aldosterone Infusion Model
Male Sprague Dawley rats (n=39; BW=250 g)
→ Hearts were harvested and divided by half through a transverse section at the mid-ventricles: The upper half was stored into formalin. The bottom part was snap-frozen in liquid nitrogen for biochemical analysis.
(§5) Hearts were stained with hematoxylin&eosin and the collagen specific dye picro-sirius red and were analyzed for determination of interstitial collagen volume fraction and morphologic abnormalities (i.e. necrosis, vascular injury).

[3] = Assay B: interstitial collagen volume fraction and hydroxyproline concentration (myocardial fibrosis); settings: aldosterone/salt-treated uni-nephrectomized Sprague Dawley rats, 4 weeks
Method: as §5, with “Assay B: In Vivo Aldosterone Infusion Model Hearts” for “Hearts”, “injury). Hydroxyproline concentration was measured in the frozen hearts.” for “injury).”

COX-2 = test: Assay C: COX-2 mRNA, TaqMan; settings: 7, 14, 30 days; aldosterone+salt alone or with eplerenone 100 mg/kg/day
Method: as §1, §2, §3, §4

[4] = Assay A: angiotensin II infusion model, heart histology (hematoxylin&eosin), vascular inflammation and myocardial injury; settings: Wistar rats, 1% NaCl, angiotensin II 25 ng/min sc, 4 weeks, 10/group; eplerenone 100 mpk; aldosterone replacement in adrenalectomized rats
Description: Assay A: In Vivo Angiotensin II Infusion Model
Male Wistar rats (n=50, 10/group; BW=200 g)
Sacrifice by exanguination after 4 weeks. Blood was be collected in dry tubes for determination of serum electrolytes and in EDTA-containing tubes for measurement of aldosterone and corticosterone levels
Hearts were stained with hematoxylin&eosin and have been analyzed for determination of morphologic abnormalities (i.e. necrosis, vascular injury).

osteopontin = test: Assay B: osteopontin mRNA by quantitative RT-PCR (Taqman); settings: aldosterone/salt-treated rats receiving vehicle
Method: Assay B: In Vivo Aldosterone Infusion Model Determination of osteopontin and COX-2 was performed by quantitative RT-PCR (Taqman). Osteopontin was also identified in the heart by immunohistochemistry.

[5] = Assay A: angiotensin II infusion model, systolic blood pressure by tail-cuff; settings: Wistar rats, 1% NaCl to drink, angiotensin II 25 ng/min sc, 4 weeks; eplerenone 100 mpk; aldosterone given to adrenalectomized, dexamethasone-treated rats

Compound	VCAM-1 gene expression in myocardium [1]	Vascular inflammatory lesions / myocardial injury (hematoxylin-eosin) [2]	Myocardial fibrosis (interstitial collagen volume fraction, hydroxyproline concentration) [3]	COX-2 mRNA expression in myocardium (COX-2)	Vascular inflammatory lesions in the coronary arteries / heart [4]	Upregulation of osteopontin mRNA vs control (osteopontin) [fold]	Systolic blood pressure [5]
C[C@]12CCC(=O)C=C1CC[C@@H]1[C@@H]2[C@@H](O)C[C@]2(C=O)[C@@H](C(=O)CO)CC[C@@H]12 [aldosterone]	increased two-fold at day 30	severe vascular inflammatory lesions	absence of myocardial fibrosis	significantly increased	restored the severe coronary and myocardial inflammation and injury	7	increased blood pressure
COC(=O)[C@@H]1CC2=CC(=O)CC[C@]2(C)[C@@]23O[C@@H]2C[C@@]2(C)[C@@H](CC[C@@]24CCC(=O)O4)[C@H]13 [eplerenone]	significantly reduced; also recorded: inhibition of early time-course expression of myocardial ICAM-1 and VCAM-1	completely prevented the vascular inflammatory changes; also recorded: prevention by eplerenone of myocardial injury		inhibition of early time-course expression of myocardial COX-2; also recorded: significantly reduced	prevention by eplerenone (epoxymexrenone) of vascular inflammation; also recorded: one of the ten		Neither eplerenone nor adrenalectomy reduced blood pressure
